Here are results for 2 compounds from patent publication US8039504B2 (priority 2003, dated 2011).

Data set [1] deals with Vaccinia virus (NYCBH). Kind of data set: microbe, parasite or virus in culture. The following applies: Orthopoxvirus vaccinia, Vero, 72 h, read-out: Vaccinia EC50. It counts as cell-based.
In data set [2] the test system is wild type cowpox virus. Kind of data set: microbe, parasite or virus in culture. It counts as cell-based. The following applies: read-out: Cowpox EC50.
The test system of data set [3] is monkeypox virus (Zaire (V79-1-005-scab)). Put plainly: microbe, parasite or virus in culture. It counts as cell-based. The conditions noted are these: read-out: Monkeypox EC50.
The subject of data set [4] is camelpox. Kind of data set: microbe, parasite or virus in culture. The class given is cell-based. The following applies: read-out: Camelpox EC50.
Data set [5] in a line: physchem.

SMILES strings stand for the structures. Values after ≈ are worked out from the molar mass of the structure shown.

By EC50 is commonly meant the midpoint of the concentration-response curve. A word on the solubility: it is how much of the substance goes into solution per volume. For `O=C(NN1C(=O)[C@@H]2C3C=CC(C4CC43)[C@@H]2C1=O)c1ccc(C(F)(F)F)cc1` (some centres unmarked) [Example 1, 4-Trifluoromethyl-N-(3,3a,4,4a,5,5a,6,6a,- octahydro-1,3-dioxo-4,6-ethenocycloprop[f]isoindol-2(1H)-yl)-benzamide], the EC50 in data set [1], in data set [2], in data set [3] and in data set [4] was below 500 nM each time. Also, the solubility in data set [5] (aqueous with cosolvent or surfactant or cyclodextrin, ST-246 Solubility) was 68.7 µg/mL (≈ 183 µM); in data set [5] (organic solvent or mixture, ST-246 Solubility), 60800 µg/mL (≈ 162000 µM); in data set [5] (organic solvent or mixture, Solubility in organic solvents), 60000 µg/mL (≈ 159000 µM); in data set [5] (pH 6.8, aqueous buffer, ST-246 Solubility), 7 µg/mL (≈ 18.6 µM); in data set [5] (simulated gastric fluid, ST-246 Solubility), 37.5 µg/mL (≈ 99.6 µM); in data set [5] (water, ST-246 Solubility) it was 26 µg/mL (≈ 69.1 µM).
`O=C1[C@@H]2C3C=CC(C4CC43)[C@@H]2C(=O)N1NC(=O)C12CC3CC(CC(C3)C1)C2` (some centres unmarked) [Example 24, N-(3,3a,4,4a,5,5a,6,6a,- octahydro-1,3-dioxo-4,6-ethenocycloprop[f]isoindol-2(1H)-yl)-tricyclo[3.3.1.13.7] decane-1-carboxamide]: the EC50 is below 500 nM in data set [1], 500 to 1000 nM in data set [2], below 500 nM in data set [3] and below 500 nM in data set [4].
